Our source for the pest or weed control values is patent US20110136666A1, “CHEMICAL COMPOUNDS” (SYNGENTA CROP PROTECTION, INC., priority 2008, published 2011).

The structures appear in SMILES notation.

The subject of the first assay is Setaria faberi (SETFA). Put plainly: Pre-emergence biological efficacy, glasshouse pot test. Type of assay: in vivo. As to conditions: 312 h, 250 g/ha, after 13 days, 100=total damage, 0=no damage, read-out: Percentage damage caused to weed species SETFA. In short, it runs like this: (§1)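 Pots sown with weed seeds, sprayed 1 day after sowing with test compound in acetone/water (50:50) plus 0.5% Tween 20 at 250 or 1000 g/ha. Plants grown in glasshouse at 24/16° C day/night, 14 h light, 65% humidity, watered twice daily. Damage scored visually after 13 days (0 = none, 100 = total).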
For `COC(=O)c1nc(-c2cccnc2OCC(F)(F)F)nc(N)c1Cl` [Compound 2-166, 4-Amino-5-chloro-6-methoxycarbonyl-2-(2-[2,2,2-trifluoroethoxy]-pyridin-3-yl)-pyrimidine], the pest or weed control at 250 g/ha stood at 0%.

Consider `COC(=O)c1nc(-c2cccnc2F)nc(N)c1Cl` [Compound 2-172, 4-Amino-5-chloro-2-(2-fluoropyridin-3-yl)-6-methoxycarbonyl pyrimidine], for which the pest or weed control at 250 g/ha stood at 0%.

The next assay relates to Echinochloa crus-galli (ECHCG). Described as above. As to conditions: 312 h, 250 g/ha, after 13 days, 100=total damage, 0=no damage, read-out: Percentage damage caused to weed species ECHCG. Format: in vivo. In short, it runs like this: as §1
For `COC(=O)c1nc(-c2cccnc2OCC(F)(F)F)nc(N)c1Cl` [Compound 2-166, 4-Amino-5-chloro-6-methoxycarbonyl-2-(2-[2,2,2-trifluoroethoxy]-pyridin-3-yl)-pyrimidine], the pest or weed control at 250 g/ha was 0%.

As for `COC(=O)c1nc(-c2cccnc2F)nc(N)c1Cl` [Compound 2-172, 4-Amino-5-chloro-2-(2-fluoropyridin-3-yl)-6-methoxycarbonyl pyrimidine], the pest or weed control at 250 g/ha is 0%.

Another assay deals with Alopecurus myosuroides (ALOMY). The description is as above. As to conditions: 312 h, 250 g/ha, after 13 days, 100=total damage, 0=no damage, read-out: Percentage damage caused to weed species ALOMY. Format: in vivo. In short, it runs like this:
as §1
On to `COC(=O)c1nc(-c2cccnc2OCC(F)(F)F)nc(N)c1Cl` [Compound 2-166, 4-Amino-5-chloro-6-methoxycarbonyl-2-(2-[2,2,2-trifluoroethoxy]-pyridin-3-yl)-pyrimidine], for which the pest or weed control at 250 g/ha was 0%.

As for `COC(=O)c1nc(-c2cccnc2F)nc(N)c1Cl` [Compound 2-172, 4-Amino-5-chloro-2-(2-fluoropyridin-3-yl)-6-methoxycarbonyl pyrimidine], the pest or weed control at 250 g/ha was found to be 0%.

A further assay has as its system Amaranthus retroflexus (AMARE). Described as above. Format: in vivo. As to conditions: 312 h, 250 g/ha, after 13 days, 100=total damage, 0=no damage, read-out: Percentage damage caused to weed species AMARE. In short, it runs like this: as §1
Turning to `COC(=O)c1nc(-c2cccnc2OCC(F)(F)F)nc(N)c1Cl` [Compound 2-166, 4-Amino-5-chloro-6-methoxycarbonyl-2-(2-[2,2,2-trifluoroethoxy]-pyridin-3-yl)-pyrimidine], the pest or weed control at 250 g/ha turned out to be 0%.

As to `COC(=O)c1nc(-c2cccnc2F)nc(N)c1Cl` [Compound 2-172, 4-Amino-5-chloro-2-(2-fluoropyridin-3-yl)-6-methoxycarbonyl pyrimidine], the pest or weed control at 250 g/ha was 0%.

The next assay deals with Ipomea hederaceae (IPOHE). The assay is described as above. Type of assay: in vivo. As to conditions: Ipomoea hederacea, 312 h, 250 g/ha, after 13 days, 100=total damage, 0=no damage, read-out: Percentage damage caused to weed species IPOHE. The procedure, abridged:
as §1
Consider `COC(=O)c1nc(-c2cccnc2OCC(F)(F)F)nc(N)c1Cl` [Compound 2-166, 4-Amino-5-chloro-6-methoxycarbonyl-2-(2-[2,2,2-trifluoroethoxy]-pyridin-3-yl)-pyrimidine], for which the pest or weed control at 250 g/ha amounted to 0%.

Take `COC(=O)c1nc(-c2cccnc2F)nc(N)c1Cl` [Compound 2-172, 4-Amino-5-chloro-2-(2-fluoropyridin-3-yl)-6-methoxycarbonyl pyrimidine]: the pest or weed control at 250 g/ha worked out at 0%.

A further assay deals with Solanum nigrum (SOLNI). Described as above. Type of assay: in vivo. As to conditions: 312 h, 250 g/ha, after 13 days, 100=total damage, 0=no damage, read-out: Percentage damage caused to weed species SOLNI. The procedure, abridged:
as §1
For `COC(=O)c1nc(-c2cccnc2OCC(F)(F)F)nc(N)c1Cl` [Compound 2-166, 4-Amino-5-chloro-6-methoxycarbonyl-2-(2-[2,2,2-trifluoroethoxy]-pyridin-3-yl)-pyrimidine], the pest or weed control at 250 g/ha is 0%.

For the compound `COC(=O)c1nc(-c2cccnc2F)nc(N)c1Cl` [Compound 2-172, 4-Amino-5-chloro-2-(2-fluoropyridin-3-yl)-6-methoxycarbonyl pyrimidine], the pest or weed control at 250 g/ha stood at 0%.

The next assay relates to Setaria faberi (SETFA). Put plainly: Post-emergence biological efficacy, glasshouse pot test. As to conditions: 312 h, 250 g/ha, after 13 days, 100=total damage, 0=no damage, read-out: Percentage damage caused to weed species SETFA. Format: in vivo. The procedure, abridged: (§2)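 Species sown in soil and grown 8 days in glasshouse (24/16 °C day/night, 14 h light, 65% humidity), then sprayed with compound in acetone/water (50:50) with 0.5% Tween 20 at 250 or 1000 g/ha. Damage scored visually after 13 days (0 = none, 100 = total).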
With `COC(=O)c1nc(-c2cccnc2OCC(F)(F)F)nc(N)c1Cl` [Compound 2-166, 4-Amino-5-chloro-6-methoxycarbonyl-2-(2-[2,2,2-trifluoroethoxy]-pyridin-3-yl)-pyrimidine], the pest or weed control at 250 g/ha was 0%.

As for `COC(=O)c1nc(-c2cccnc2F)nc(N)c1Cl` [Compound 2-172, 4-Amino-5-chloro-2-(2-fluoropyridin-3-yl)-6-methoxycarbonyl pyrimidine], the pest or weed control at 250 g/ha was 10%.

For the next assay, the system named is Echinochloa crus-galli (ECHCG). The description is as above. As to conditions: 312 h, 250 g/ha, after 13 days, 100=total damage, 0=no damage, read-out: Percentage damage caused to weed species ECHCG. Format: in vivo. The procedure, abridged:
as §2
Regarding `COC(=O)c1nc(-c2cccnc2OCC(F)(F)F)nc(N)c1Cl` [Compound 2-166, 4-Amino-5-chloro-6-methoxycarbonyl-2-(2-[2,2,2-trifluoroethoxy]-pyridin-3-yl)-pyrimidine], the pest or weed control at 250 g/ha stood at 0%.

For `COC(=O)c1nc(-c2cccnc2F)nc(N)c1Cl` [Compound 2-172, 4-Amino-5-chloro-2-(2-fluoropyridin-3-yl)-6-methoxycarbonyl pyrimidine], the pest or weed control at 250 g/ha turned out to be 0%.

In the next assay the test system is Alopecurus myosuroides (ALOMY). The assay is described as above. Type of assay: in vivo. As to conditions: 312 h, 250 g/ha, after 13 days, 100=total damage, 0=no damage, read-out: Percentage damage caused to weed species ALOMY. In short, it runs like this:
as §2
In the case of `COC(=O)c1nc(-c2cccnc2OCC(F)(F)F)nc(N)c1Cl` [Compound 2-166, 4-Amino-5-chloro-6-methoxycarbonyl-2-(2-[2,2,2-trifluoroethoxy]-pyridin-3-yl)-pyrimidine], the pest or weed control at 250 g/ha was determined as 0%.

As for `COC(=O)c1nc(-c2cccnc2F)nc(N)c1Cl` [Compound 2-172, 4-Amino-5-chloro-2-(2-fluoropyridin-3-yl)-6-methoxycarbonyl pyrimidine], the pest or weed control at 250 g/ha was 10%.

For a further assay, the system named is Amaranthus retroflexus (AMARE). The assay is described as above. Format: in vivo. As to conditions: 312 h, 250 g/ha, after 13 days, 100=total damage, 0=no damage, read-out: Percentage damage caused to weed species AMARE. The procedure, abridged:
as §2
As to `COC(=O)c1nc(-c2cccnc2OCC(F)(F)F)nc(N)c1Cl` [Compound 2-166, 4-Amino-5-chloro-6-methoxycarbonyl-2-(2-[2,2,2-trifluoroethoxy]-pyridin-3-yl)-pyrimidine], the pest or weed control at 250 g/ha stood at 0%.

For `COC(=O)c1nc(-c2cccnc2F)nc(N)c1Cl` [Compound 2-172, 4-Amino-5-chloro-2-(2-fluoropyridin-3-yl)-6-methoxycarbonyl pyrimidine], the pest or weed control at 250 g/ha is 0%.

Another assay has as its system Ipomea hederaceae (IPOHE). The description is as above. Format: in vivo. As to conditions: Ipomoea hederacea, 312 h, 250 g/ha, after 13 days, 100=total damage, 0=no damage, read-out: Percentage damage caused to weed species IPONE. In short, it runs like this:
as §2
Take `COC(=O)c1nc(-c2cccnc2OCC(F)(F)F)nc(N)c1Cl` [Compound 2-166, 4-Amino-5-chloro-6-methoxycarbonyl-2-(2-[2,2,2-trifluoroethoxy]-pyridin-3-yl)-pyrimidine]: the pest or weed control at 250 g/ha is 0%.

`COC(=O)c1nc(-c2cccnc2F)nc(N)c1Cl` [Compound 2-172, 4-Amino-5-chloro-2-(2-fluoropyridin-3-yl)-6-methoxycarbonyl pyrimidine]: the pest or weed control at 250 g/ha amounted to 10%.

A further assay deals with Solanum nigrum (SOLNI). The assay is described as above. Type of assay: in vivo. As to conditions: 312 h, 250 g/ha, after 13 days, 100=total damage, 0=no damage, read-out: Percentage damage caused to weed species SOLNI. In short, it runs like this:
as §2
Turning to `COC(=O)c1nc(-c2cccnc2OCC(F)(F)F)nc(N)c1Cl` [Compound 2-166, 4-Amino-5-chloro-6-methoxycarbonyl-2-(2-[2,2,2-trifluoroethoxy]-pyridin-3-yl)-pyrimidine], the pest or weed control at 250 g/ha was found to be 0%.

Regarding `COC(=O)c1nc(-c2cccnc2F)nc(N)c1Cl` [Compound 2-172, 4-Amino-5-chloro-2-(2-fluoropyridin-3-yl)-6-methoxycarbonyl pyrimidine], the pest or weed control at 250 g/ha worked out at 60%.
